Laboratory results from patent US6800621B2, “Imidazo[4,5-b]-pyridiniummethyl-containing cephem compounds having broad antibacterial spectrum activity” (Shionogi & Co., Ltd., priority 1998, dated 2004).
In brackets after ≈: the same amount, converted by molar mass. Like-named read-outs stand apart in the source and are kept apart here.

Assays:
P.aeruginosa SR24 = test: MIC by agar dilution method; type: cell-based; conditions: P.aeruginosa SR24, G(−)
Procedure: (§1) The minimal inhibitory concentration (MIC) of compound (I) against various bacteria was determined by an agar dilution method. As reference compounds, used were cefozopran hydrochloride (CZOP) described in JP(A) Kokai H03-47189, cefoselis sulfate (CFSL) described in JP(A) Kokai H07-196665 and WO97/41128, compound A of which 3-side chain is a type of imidazo[4,5-c]pyridiniummethyl, and vancomycin. In the table, “Ex5-3”, for example, represents the end compound of the present invention obtained in Example 5-3, and the others are similarly expressed.

S.aureus SMITH = test: MIC by agar dilution method; type: cell-based; conditions: S.aureus SMITH, G(+)
Procedure: as §1

E.coli NIH JC-2 = test: MIC by agar dilution method; type: cell-based; conditions: E.coli NIH JC-2, G(−)
Procedure: as §1

S.aureus SR14 = test: MIC by agar dilution method; type: cell-based; conditions: S.aureus SR14, G(+)
Procedure: as §1

E.coli SR5028 = test: MIC by agar dilution method; type: cell-based; conditions: E.coli SR5028, G(−)
Procedure: as §1

E.cloacae ATCC 13047 = test: MIC by agar dilution method; type: cell-based; conditions: E.cloacae ATCC 13047, G(−)
Procedure: as §1

S.aureus SR3637 [1] = test: MIC by agar dilution method; type: cell-based; conditions: S.aureus SR3637 (MRSA), G(+)
Procedure: as §1

S.pneumoniae SR16675 = test: MIC by agar dilution method; type: cell-based; conditions: S.pneumoniae SR16675, G(+)
Procedure: as §1

S.aureus SR3626 = test: MIC by agar dilution method; type: cell-based; conditions: S.aureus SR3626 (MRSA), G(+)
Procedure: as §1

S.mitis SR16376 = test: MIC by agar dilution method; type: cell-based; conditions: S.mitis SR16376, G(+)
Procedure: as §1

S.marvescens ATCC 13880 = test: MIC by agar dilution method; type: cell-based
Procedure: as §1

P.aeruginosae SR5393 = test: MIC by agar dilution method; type: cell-based; conditions: P.aeruginosae SR5393, G(−)
Procedure: as §1

E.faecalis SR1004 = test: MIC by agar dilution method; type: cell-based; conditions: E.faecalis SR1004, G(+)
Procedure: as §1

S.pneumoniae Type 1 = test: MIC by agar dilution method; type: cell-based; conditions: S.pneumoniae Type 1, G(+)
Procedure: as §1

E.cloacae SR4321 = test: MIC by agar dilution method; type: cell-based; conditions: E.cloacae SR4321, G(−)
Procedure: as §1

P.vulgaris CN-329 = test: MIC by agar dilution method; type: cell-based; conditions: P.vulgaris CN-329, G(−)
Procedure: as §1

S.aureus SR3637 [2] = test: ED50 mouse/S.aureus SR3637; type: in vivo
[3] = Staphylococcus aureus, read-out: MIC

Row | SMILES | MIC (P.aeruginosa SR24) | MIC (S.aureus SMITH) | MIC (E.coli NIH JC-2) | MIC (S.aureus SR14) | MIC (E.coli SR5028) | MIC (E.cloacae ATCC 13047) | MIC (S.aureus SR3637 [1]) | MIC (S.pneumoniae SR16675) | MIC (S.aureus SR3626) | MIC (S.mitis SR16376) | MIC (S.marvescens ATCC 13880; S.marvescens ATCC 13880, G(−)) | MIC (P.aeruginosae SR5393) | MIC (E.faecalis SR1004) | MIC (S.pneumoniae Type 1) | MIC (E.cloacae SR4321) | MIC (P.vulgaris CN-329) | ED50 (S.aureus SR3637 [2]) | other results
1 | CCO/N=C(\C(=O)NC1C(=O)N2C(C(=O)[O-])=C(C[n+]3ccc4c(c3)ncn4CCCN)CSC12)c1nsc(N)n1 (stereo not drawn) [A, reference compound] |  |  |  |  |  |  |  |  |  |  |  |  |  |  |  |  |  | MIC (P.aeruginosa SR24; Pseudomonas aeruginosa, read-out: MIC): 0.78 µg/mL (≈ 1.33 µM); MIC (S.aureus SMITH; [3]): 0.78 µg/mL (≈ 1.33 µM); MIC (E.coli NIH JC-2; Escherichia coli, NIHJC2, read-out: MIC): 0.05 µg/mL (≈ 0.0852 µM); MIC (S.aureus SR14; [3]): 3.13 µg/mL (≈ 5.34 µM); MIC (E.coli SR5028; Escherichia coli, read-out: MIC): 1.56 µg/mL (≈ 2.66 µM); MIC (E.cloacae ATCC 13047; Enterobacter cloacae, ATCC13047, read-out: MIC): 0.48 µg/mL (≈ 0.818 µM); MIC (S.aureus SR3637 [1]; [3]): 25 µg/mL (≈ 42.6 µM); MIC (S.pneumoniae SR16675; Streptococcus pneumoniae, read-out: MIC): 0.39 µg/mL (≈ 0.665 µM); MIC (S.aureus SR3626; [3]): 25 µg/mL (≈ 42.6 µM); MIC (S.mitis SR16376; Streptococcus mitis, read-out: MIC): 0.1 µg/mL (≈ 0.17 µM); MIC (S.marvescens ATCC 13880): 0.1 µg/mL (≈ 0.17 µM); MIC (P.aeruginosae SR5393; read-out: MIC): 3.13 µg/mL (≈ 5.34 µM); MIC (E.faecalis SR1004; Enterococcus faecalis, read-out: MIC): 50 µg/mL (≈ 85.2 µM); MIC (S.pneumoniae Type 1; Streptococcus pneumoniae, TYPE1, read-out: MIC): 0.0125 µg/mL (≈ 0.0213 µM); MIC (E.cloacae SR4321; Enterobacter cloacae, read-out: MIC): 12.5 µg/mL (≈ 21.3 µM); MIC (P.vulgaris CN-329; Proteus vulgaris, CN329, read-out: MIC): 0.1 µg/mL (≈ 0.17 µM)
2 | Cl.NCCCn1cnc2c1ccc[n+]2CC1=C(C(=O)[O-])N2C(=O)C(NC(=O)C(=NOCF)c3nsc(N)n3)C2SC1 (stereo not drawn) [Ex5-3] | 1.56 µg/mL | 0.78 µg/mL | 0.1 µg/mL | 0.78 µg/mL | 1.56 µg/mL | 0.39 µg/mL | 3.13 µg/mL | 0.78 µg/mL | 3.13 µg/mL | 0.2 µg/mL | 0.1 µg/mL | 6.25 µg/mL | 100 µg/mL | 0.025 µg/mL | 12.5 µg/mL | 0.39 µg/mL | 5.66 mg/kg | 
3 | CCON=C(C(=O)NC1C(=O)N2C(C(=O)[O-])=C(C[n+]3cccc4c3ncn4CCCN)CSC12)c1nsc(N)n1.Cl (stereo not drawn) [Ex5-2] | 0.78 µg/mL | 0.78 µg/mL | 0.39 µg/mL | 0.78 µg/mL | 3.13 µg/mL | 0.78 µg/mL | 3.13 µg/mL | 0.78 µg/mL | 3.13 µg/mL | 0.2 µg/mL | 0.39 µg/mL | 3.13 µg/mL | 50 µg/mL | 0.025 µg/mL | 25 µg/mL | 0.78 µg/mL |  | 
4 | CCON=C(C(=O)NC1C(=O)N2C(C(=O)[O-])=C(C[n+]3cccc4c3ncn4C3CCNC3)CSC12)c1nsc(N)n1.Cl (stereo not drawn) [Ex4-1] | 0.78 µg/mL | 0.78 µg/mL | 0.2 µg/mL | 1.56 µg/mL | 3.13 µg/mL | 0.78 µg/mL | 6.25 µg/mL | 0.39 µg/mL | 3.13 µg/mL | 0.1 µg/mL | 0.2 µg/mL | 3.13 µg/mL | 50 µg/mL | 0.025 µg/mL | 25 µg/mL | 0.78 µg/mL | 11.3 mg/kg | 
